{"source": "ChEMBL document CHEMBL1127248", "about": "“Novel water-solutle (7-(acylhydrazono)-formyl camptothecins as potent inhibitors of DNA topoisomerase I” (Bioorg Med Chem Lett, 1994)", "key": {"HepG2": {"system": "HepG2", "assay": "Cytotoxicity in HepG2-T14 cancer cell line", "type": "functional, cell-based", "details": "Homo sapiens"}, "[1]": {"target": "T1, DNA topoisomerase 1 (Homo sapiens) (UniProt P11387)", "T1 sequence (whole entry)": "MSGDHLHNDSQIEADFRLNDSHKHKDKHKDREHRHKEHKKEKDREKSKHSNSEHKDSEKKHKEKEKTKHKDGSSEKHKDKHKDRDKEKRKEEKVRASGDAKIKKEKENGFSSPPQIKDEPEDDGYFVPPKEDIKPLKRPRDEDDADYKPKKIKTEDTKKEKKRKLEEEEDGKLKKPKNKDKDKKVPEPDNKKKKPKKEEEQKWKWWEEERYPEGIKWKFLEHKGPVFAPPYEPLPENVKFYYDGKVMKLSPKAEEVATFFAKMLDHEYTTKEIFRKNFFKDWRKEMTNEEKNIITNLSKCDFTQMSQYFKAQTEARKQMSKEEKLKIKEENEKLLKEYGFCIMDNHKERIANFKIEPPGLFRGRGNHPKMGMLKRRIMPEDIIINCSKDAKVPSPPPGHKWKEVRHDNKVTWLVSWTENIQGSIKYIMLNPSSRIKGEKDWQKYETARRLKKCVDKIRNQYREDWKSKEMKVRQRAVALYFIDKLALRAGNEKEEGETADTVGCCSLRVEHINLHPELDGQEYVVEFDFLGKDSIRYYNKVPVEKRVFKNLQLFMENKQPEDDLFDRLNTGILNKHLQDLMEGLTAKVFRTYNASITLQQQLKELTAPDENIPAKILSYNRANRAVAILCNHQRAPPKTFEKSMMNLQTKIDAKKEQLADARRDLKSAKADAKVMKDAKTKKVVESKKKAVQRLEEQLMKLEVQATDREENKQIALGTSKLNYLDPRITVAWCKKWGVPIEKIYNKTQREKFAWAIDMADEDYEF", "assay": "Compound was tested for the inhibition of Topoisomerase I when administered at a dose of 25 ug/mL"}, "KB [2]": {"system": "KB", "assay": "Cytotoxicity in KB VP-16 R cancer cell line", "type": "functional, cell-based", "details": "Homo sapiens"}, "SW480": {"system": "SW480", "assay": "Cytotoxicity in SW480 cancer cell line", "type": "functional, cell-based", "details": "Homo sapiens"}, "KB VCR R": {"system": "KB VCR R", "assay": "Cytotoxicity in KB VCR R cancer cell line", "type": "functional, cell-based", "details": "Homo sapiens"}, "[3]": {"assay": "Compound was tested for the production of cellular protein-linked DNA breaks when administered at a dose of 25 ug/mL", "type": "functional"}, "MCF7": {"system": "MCF7", "assay": "Cytotoxicity in MCF-7 cancer cell line", "type": "functional, cell-based", "details": "Homo sapiens"}, "KB [4]": {"system": "KB", "assay": "Cytotoxicity in KB cancer cell line", "type": "functional, cell-based", "details": "Homo sapiens"}}, "data": [{"smiles": "CC[C@@]1(O)C(=O)OCc2c1cc1n(c2=O)Cc2c-1nc1ccccc1c2/C=N/NC(=O)C1CCCN1.Cl", "note": "(stereo partly specified)", "values": [{"measurement": "IC50", "setting": "HepG2", "result": 1.25, "unit": "µg/mL"}, {"measurement": "Topoisomerase I inhibition relative to reference (%)", "setting": "[1]", "result": 100, "unit": "%"}, {"measurement": "IC50", "setting": "KB [2]", "result": 0.6, "unit": "µg/mL"}, {"measurement": "IC50", "setting": "SW480", "result": 0.7, "unit": "µg/mL"}, {"measurement": "IC50", "setting": "KB VCR R", "result": 5, "unit": "µg/mL"}, {"measurement": "Activity", "setting": "[3]", "result": 154.6, "unit": "%"}, {"measurement": "IC50", "setting": "MCF7", "result": 0.8, "unit": "µg/mL"}, {"measurement": "IC50", "setting": "KB [4]", "result": 0.04, "unit": "µg/mL"}]}, {"smiles": "CC[C@@]1(O)C(=O)OCc2c1cc1n(c2=O)Cc2c-1nc1ccccc1c2/C=N/NC(=O)C(N)CC(C)C.Cl", "note": "(stereo partly specified)", "values": [{"measurement": "IC50", "setting": "HepG2", "result": 0.4, "unit": "µg/mL"}, {"measurement": "Topoisomerase I inhibition relative to reference (%)", "setting": "[1]", "result": 136, "unit": "%"}, {"measurement": "IC50", "setting": "KB [2]", "result": 1, "unit": "µg/mL"}, {"measurement": "IC50", "setting": "SW480", "result": 0.04, "unit": "µg/mL"}, {"measurement": "IC50", "setting": "KB VCR R", "result": 0.4, "unit": "µg/mL"}, {"measurement": "Activity", "setting": "[3]", "result": 111.7, "unit": "%"}, {"measurement": "IC50", "setting": "MCF7", "result": 0.15, "unit": "µg/mL"}, {"measurement": "IC50", "setting": "KB [4]", "result": 0.1, "unit": "µg/mL"}]}, {"smiles": "CC[C@@]1(O)C(=O)OCc2c1cc1n(c2=O)Cc2c-1nc1ccccc1c2/C=N/NC(=O)C(N)CCSC.Cl", "note": "(stereo partly specified)", "values": [{"measurement": "IC50", "setting": "HepG2", "result": 2, "unit": "µg/mL"}, {"measurement": "IC50", "setting": "KB [2]", "result": 0.5, "unit": "µg/mL"}, {"measurement": "IC50", "setting": "SW480", "result": 0.8, "unit": "µg/mL"}, {"measurement": "IC50", "setting": "KB VCR R", "result": 0.2, "unit": "µg/mL"}, {"measurement": "Activity", "setting": "[3]", "result": 111, "unit": "%"}, {"measurement": "IC50", "setting": "MCF7", "result": 1, "unit": "µg/mL"}, {"measurement": "IC50", "setting": "KB [4]", "result": 0.1, "unit": "µg/mL"}]}, {"smiles": "CC[C@@]1(O)C(=O)OCc2c1cc1n(c2=O)Cc2c-1nc1ccccc1c2/C=N/NC(=O)CN.Cl", "values": [{"measurement": "IC50", "setting": "HepG2", "result": 0.6, "unit": "µg/mL"}, {"measurement": "Topoisomerase I inhibition relative to reference (%)", "setting": "[1]", "result": 116, "unit": "%"}, {"measurement": "IC50", "setting": "KB [2]", "result": 3, "unit": "µg/mL"}, {"measurement": "IC50", "setting": "SW480", "result": 0.1, "unit": "µg/mL"}, {"measurement": "IC50", "setting": "KB VCR R", "result": 1, "unit": "µg/mL"}, {"measurement": "Activity", "setting": "[3]", "result": 110.3, "unit": "%"}, {"measurement": "IC50", "setting": "MCF7", "result": 0.4, "unit": "µg/mL"}, {"measurement": "IC50", "setting": "KB [4]", "result": 0.1, "unit": "µg/mL"}]}, {"smiles": "CC[C@@]1(O)C(=O)OCc2c1cc1n(c2=O)Cc2c-1nc1ccccc1c2/C=N/NC(=O)C(N)CO.Cl", "note": "(stereo partly specified)", "values": [{"measurement": "IC50", "setting": "HepG2", "result": 3.5, "unit": "µg/mL"}, {"measurement": "Topoisomerase I inhibition relative to reference (%)", "setting": "[1]", "result": 145, "unit": "%"}, {"measurement": "IC50", "setting": "KB [2]", "result": 5, "unit": "µg/mL"}, {"measurement": "IC50", "setting": "SW480", "result": 1, "unit": "µg/mL"}, {"measurement": "IC50", "setting": "KB VCR R", "result": 3, "unit": "µg/mL"}, {"measurement": "Activity", "setting": "[3]", "result": 79.8, "unit": "%"}, {"measurement": "IC50", "setting": "MCF7", "result": 1, "unit": "µg/mL"}, {"measurement": "IC50", "setting": "KB [4]", "result": 0.12, "unit": "µg/mL"}]}, {"smiles": "CC[C@@]1(O)C(=O)OCc2c1cc1n(c2=O)Cc2c-1nc1ccccc1c2/C=N/NC(=O)C(C)N.Cl", "note": "(stereo partly specified)", "values": [{"measurement": "IC50", "setting": "HepG2", "result": 2.5, "unit": "µg/mL"}, {"measurement": "Topoisomerase I inhibition relative to reference (%)", "setting": "[1]", "result": 98, "unit": "%"}, {"measurement": "IC50", "setting": "KB [2]", "result": 5, "unit": "µg/mL"}, {"measurement": "IC50", "setting": "SW480", "result": 0.6, "unit": "µg/mL"}, {"measurement": "IC50", "setting": "KB VCR R", "result": 3, "unit": "µg/mL"}, {"measurement": "Activity", "setting": "[3]", "result": 93.7, "unit": "%"}, {"measurement": "IC50", "setting": "MCF7", "result": 1, "unit": "µg/mL"}, {"measurement": "IC50", "setting": "KB [4]", "result": 0.1, "unit": "µg/mL"}]}, {"smiles": "CC[C@@]1(O)C(=O)OCc2c1cc1n(c2=O)Cc2cc3ccccc3nc2-1", "note": "[CAMPTOTHECIN]", "values": [{"measurement": "IC50", "setting": "HepG2", "result": 0.09, "unit": "µg/mL"}, {"measurement": "IC50", "setting": "KB [2]", "result": 0.04, "unit": "µg/mL"}, {"measurement": "IC50", "setting": "SW480", "result": 0.01, "unit": "µg/mL"}, {"measurement": "IC50", "setting": "KB VCR R", "result": 0.03, "unit": "µg/mL"}, {"measurement": "Activity", "setting": "[3]", "result": 100, "unit": "%"}, {"measurement": "IC50", "setting": "MCF7", "result": 0.02, "unit": "µg/mL"}, {"measurement": "IC50", "setting": "KB [4]", "result": 0.01, "unit": "µg/mL"}]}, {"smiles": "CC[C@@]1(O)C(=O)OCc2c1cc1n(c2=O)Cc2c-1nc1ccccc1c2/C=N/NC(=O)C(N)Cc1ccc(O)cc1.Cl", "note": "(stereo partly specified)", "values": [{"measurement": "IC50", "setting": "HepG2", "result": 1, "unit": "µg/mL"}, {"measurement": "IC50", "setting": "KB [2]", "result": 5, "unit": "µg/mL"}, {"measurement": "IC50", "setting": "SW480", "result": 0.4, "unit": "µg/mL"}, {"measurement": "IC50", "setting": "KB VCR R", "result": 1, "unit": "µg/mL"}, {"measurement": "Activity", "setting": "[3]", "result": 181, "unit": "%"}, {"measurement": "IC50", "setting": "MCF7", "result": 5, "unit": "µg/mL"}, {"measurement": "IC50", "setting": "KB [4]", "result": 0.1, "unit": "µg/mL"}]}]}
